Structures can show the parent of a compound that is named as a salt. Active and inactive are the calls of the source.

Our source for the Kd values is ChEMBL document CHEMBL3991601, “The target landscape of clinical kinase drugs” (Science, 2017).

Test [1] addresses T1, Dynamin-like GTPase OPA1, mitochondrial (Homo sapiens, UniProt O60313).
T1 sequence (O60313 whole entry): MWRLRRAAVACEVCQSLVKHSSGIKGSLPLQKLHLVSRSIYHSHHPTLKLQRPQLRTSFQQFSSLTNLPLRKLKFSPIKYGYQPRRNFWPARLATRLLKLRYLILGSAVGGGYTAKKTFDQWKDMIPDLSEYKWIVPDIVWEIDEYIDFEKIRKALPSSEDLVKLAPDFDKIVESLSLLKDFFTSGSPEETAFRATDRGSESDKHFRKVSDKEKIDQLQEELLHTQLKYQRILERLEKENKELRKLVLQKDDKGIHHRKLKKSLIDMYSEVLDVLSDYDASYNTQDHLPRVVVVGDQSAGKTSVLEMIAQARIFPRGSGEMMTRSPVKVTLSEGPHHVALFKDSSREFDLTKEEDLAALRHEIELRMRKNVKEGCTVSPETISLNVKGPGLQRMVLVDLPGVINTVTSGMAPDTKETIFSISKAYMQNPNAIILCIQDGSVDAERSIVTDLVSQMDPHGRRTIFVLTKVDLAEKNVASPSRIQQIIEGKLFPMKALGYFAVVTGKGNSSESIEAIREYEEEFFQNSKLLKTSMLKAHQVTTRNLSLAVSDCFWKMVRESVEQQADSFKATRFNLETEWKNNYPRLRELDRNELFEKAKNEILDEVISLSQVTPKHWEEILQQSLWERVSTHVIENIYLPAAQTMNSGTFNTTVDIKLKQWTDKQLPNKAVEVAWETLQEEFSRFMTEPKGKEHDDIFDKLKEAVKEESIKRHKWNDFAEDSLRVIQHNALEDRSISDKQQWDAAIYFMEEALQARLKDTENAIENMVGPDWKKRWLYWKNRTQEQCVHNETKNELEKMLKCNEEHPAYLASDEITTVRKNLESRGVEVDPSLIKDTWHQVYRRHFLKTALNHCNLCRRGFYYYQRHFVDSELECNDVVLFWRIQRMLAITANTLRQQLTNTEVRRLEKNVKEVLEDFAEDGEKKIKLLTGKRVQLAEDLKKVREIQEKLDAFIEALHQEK

In test [2] the target is T2, Serine/threonine-protein kinase NLK (Homo sapiens, UniProt Q9UBE8).
T2 sequence (Q9UBE8 whole entry): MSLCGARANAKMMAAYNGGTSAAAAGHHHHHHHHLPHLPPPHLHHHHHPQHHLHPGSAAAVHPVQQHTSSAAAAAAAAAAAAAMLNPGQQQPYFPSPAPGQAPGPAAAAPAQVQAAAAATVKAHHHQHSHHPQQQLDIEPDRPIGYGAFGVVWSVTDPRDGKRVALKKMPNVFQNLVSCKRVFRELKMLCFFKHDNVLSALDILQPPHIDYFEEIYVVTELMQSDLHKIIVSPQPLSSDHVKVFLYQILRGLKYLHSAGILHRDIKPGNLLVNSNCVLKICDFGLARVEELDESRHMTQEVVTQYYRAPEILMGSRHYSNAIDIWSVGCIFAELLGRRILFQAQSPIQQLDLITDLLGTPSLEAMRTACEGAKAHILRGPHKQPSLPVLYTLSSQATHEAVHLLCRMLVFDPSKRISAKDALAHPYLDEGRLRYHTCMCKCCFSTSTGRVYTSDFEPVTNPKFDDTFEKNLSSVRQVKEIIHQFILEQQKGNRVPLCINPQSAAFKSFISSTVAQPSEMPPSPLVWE

Test [3] deals with Non-receptor tyrosine-protein kinase TYK2 (Homo sapiens, UniProt P29597).
Sequence of Non-receptor tyrosine-protein kinase TYK2 (P29597 whole entry): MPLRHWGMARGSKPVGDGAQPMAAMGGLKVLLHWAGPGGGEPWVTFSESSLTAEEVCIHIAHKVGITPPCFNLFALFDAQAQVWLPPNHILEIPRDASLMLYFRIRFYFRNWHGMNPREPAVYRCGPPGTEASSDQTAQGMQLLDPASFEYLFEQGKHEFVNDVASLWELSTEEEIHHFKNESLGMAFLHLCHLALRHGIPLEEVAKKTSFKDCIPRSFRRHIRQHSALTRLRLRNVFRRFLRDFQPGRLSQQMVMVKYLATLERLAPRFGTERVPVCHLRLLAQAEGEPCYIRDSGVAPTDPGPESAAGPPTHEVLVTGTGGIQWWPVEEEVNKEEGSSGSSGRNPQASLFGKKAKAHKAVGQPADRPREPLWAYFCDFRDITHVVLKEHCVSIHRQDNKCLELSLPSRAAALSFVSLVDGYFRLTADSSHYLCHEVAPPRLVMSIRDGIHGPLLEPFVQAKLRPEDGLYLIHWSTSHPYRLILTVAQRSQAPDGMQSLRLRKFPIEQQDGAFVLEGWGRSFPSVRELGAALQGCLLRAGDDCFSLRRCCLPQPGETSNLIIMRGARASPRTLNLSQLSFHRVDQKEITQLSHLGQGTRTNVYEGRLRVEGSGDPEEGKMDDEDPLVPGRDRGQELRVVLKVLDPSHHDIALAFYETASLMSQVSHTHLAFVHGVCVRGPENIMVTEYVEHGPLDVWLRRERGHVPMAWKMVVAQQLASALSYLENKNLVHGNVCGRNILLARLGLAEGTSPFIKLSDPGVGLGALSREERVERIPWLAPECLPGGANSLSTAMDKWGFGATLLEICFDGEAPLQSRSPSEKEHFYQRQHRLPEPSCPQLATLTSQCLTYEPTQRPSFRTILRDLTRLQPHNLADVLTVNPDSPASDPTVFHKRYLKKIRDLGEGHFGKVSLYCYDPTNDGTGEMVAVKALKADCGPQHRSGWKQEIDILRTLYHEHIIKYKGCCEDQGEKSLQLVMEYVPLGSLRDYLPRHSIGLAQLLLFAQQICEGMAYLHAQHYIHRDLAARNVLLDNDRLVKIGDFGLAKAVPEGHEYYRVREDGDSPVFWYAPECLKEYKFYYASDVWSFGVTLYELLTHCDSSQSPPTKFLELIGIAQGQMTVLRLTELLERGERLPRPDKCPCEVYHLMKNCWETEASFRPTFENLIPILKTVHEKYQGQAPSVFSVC
Test [4] addresses Structural maintenance of chromosomes protein 2 (Homo sapiens, UniProt O95347).
For test [5], the target named is T3, Very long-chain specific acyl-CoA dehydrogenase, mitochondrial (Homo sapiens, UniProt P49748).
T3 sequence (P49748 whole entry): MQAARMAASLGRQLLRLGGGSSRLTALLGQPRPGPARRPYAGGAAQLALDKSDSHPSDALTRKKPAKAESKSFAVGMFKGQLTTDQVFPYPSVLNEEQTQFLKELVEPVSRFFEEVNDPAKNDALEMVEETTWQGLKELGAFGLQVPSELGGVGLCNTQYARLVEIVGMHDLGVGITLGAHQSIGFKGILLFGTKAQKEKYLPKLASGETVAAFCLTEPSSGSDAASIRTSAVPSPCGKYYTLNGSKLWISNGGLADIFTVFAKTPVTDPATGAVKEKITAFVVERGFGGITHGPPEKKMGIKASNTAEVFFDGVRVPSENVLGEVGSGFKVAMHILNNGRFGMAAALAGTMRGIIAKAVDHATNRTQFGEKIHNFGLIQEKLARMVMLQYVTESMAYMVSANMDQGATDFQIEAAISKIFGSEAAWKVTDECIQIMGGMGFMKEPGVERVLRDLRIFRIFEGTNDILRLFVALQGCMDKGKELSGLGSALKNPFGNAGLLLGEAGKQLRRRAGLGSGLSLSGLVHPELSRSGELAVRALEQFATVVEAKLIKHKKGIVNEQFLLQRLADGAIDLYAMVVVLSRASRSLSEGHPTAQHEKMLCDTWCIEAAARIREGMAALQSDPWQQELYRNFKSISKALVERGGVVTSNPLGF

Test [6] has as its target Mitogen-activated protein kinase kinase kinase kinase 1 (Homo sapiens, UniProt Q92918).
The target of test [7] is T4, Activin receptor type-1 (Homo sapiens, UniProt Q04771).
T4 sequence (Q04771 whole entry): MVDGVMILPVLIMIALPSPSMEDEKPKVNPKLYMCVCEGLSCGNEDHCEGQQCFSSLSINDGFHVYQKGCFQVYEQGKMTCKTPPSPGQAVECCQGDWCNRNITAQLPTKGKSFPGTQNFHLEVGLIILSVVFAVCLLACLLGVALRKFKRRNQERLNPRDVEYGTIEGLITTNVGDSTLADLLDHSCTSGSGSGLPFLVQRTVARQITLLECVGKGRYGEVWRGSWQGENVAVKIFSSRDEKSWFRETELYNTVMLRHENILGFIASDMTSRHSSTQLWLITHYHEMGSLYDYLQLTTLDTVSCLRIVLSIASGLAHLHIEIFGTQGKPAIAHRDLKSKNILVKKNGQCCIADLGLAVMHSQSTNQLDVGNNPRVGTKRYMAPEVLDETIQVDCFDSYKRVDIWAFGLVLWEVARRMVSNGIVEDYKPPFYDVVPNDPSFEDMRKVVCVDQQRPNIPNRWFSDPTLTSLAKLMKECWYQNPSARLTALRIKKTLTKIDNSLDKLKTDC
Further: in the data inactive means no Kd found up to 30 µM.

Sequence of Mitogen-activated protein kinase kinase kinase kinase 1 (Q92918 whole entry): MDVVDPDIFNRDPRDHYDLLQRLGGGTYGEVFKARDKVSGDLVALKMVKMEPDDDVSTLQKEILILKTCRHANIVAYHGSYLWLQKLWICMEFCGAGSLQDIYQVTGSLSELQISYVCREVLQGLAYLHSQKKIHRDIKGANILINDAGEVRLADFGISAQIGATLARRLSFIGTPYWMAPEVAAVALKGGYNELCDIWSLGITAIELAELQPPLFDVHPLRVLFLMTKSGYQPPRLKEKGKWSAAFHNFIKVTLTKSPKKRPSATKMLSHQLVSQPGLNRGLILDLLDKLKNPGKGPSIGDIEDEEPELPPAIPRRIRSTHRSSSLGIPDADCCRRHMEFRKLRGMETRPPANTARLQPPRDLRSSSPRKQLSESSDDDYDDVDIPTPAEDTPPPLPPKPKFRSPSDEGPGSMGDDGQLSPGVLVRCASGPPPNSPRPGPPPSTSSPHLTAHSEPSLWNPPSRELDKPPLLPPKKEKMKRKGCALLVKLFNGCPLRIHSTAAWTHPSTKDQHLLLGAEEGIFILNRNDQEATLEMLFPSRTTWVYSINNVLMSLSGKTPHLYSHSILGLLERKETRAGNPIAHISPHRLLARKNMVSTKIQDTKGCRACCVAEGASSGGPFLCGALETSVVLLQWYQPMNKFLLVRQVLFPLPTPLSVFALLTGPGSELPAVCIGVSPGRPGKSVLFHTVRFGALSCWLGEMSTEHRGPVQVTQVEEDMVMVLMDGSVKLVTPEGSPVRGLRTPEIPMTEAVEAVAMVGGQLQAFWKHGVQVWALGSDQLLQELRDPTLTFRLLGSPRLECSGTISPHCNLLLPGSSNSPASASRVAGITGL
Sequence of Structural maintenance of chromosomes protein 2 (O95347 whole entry): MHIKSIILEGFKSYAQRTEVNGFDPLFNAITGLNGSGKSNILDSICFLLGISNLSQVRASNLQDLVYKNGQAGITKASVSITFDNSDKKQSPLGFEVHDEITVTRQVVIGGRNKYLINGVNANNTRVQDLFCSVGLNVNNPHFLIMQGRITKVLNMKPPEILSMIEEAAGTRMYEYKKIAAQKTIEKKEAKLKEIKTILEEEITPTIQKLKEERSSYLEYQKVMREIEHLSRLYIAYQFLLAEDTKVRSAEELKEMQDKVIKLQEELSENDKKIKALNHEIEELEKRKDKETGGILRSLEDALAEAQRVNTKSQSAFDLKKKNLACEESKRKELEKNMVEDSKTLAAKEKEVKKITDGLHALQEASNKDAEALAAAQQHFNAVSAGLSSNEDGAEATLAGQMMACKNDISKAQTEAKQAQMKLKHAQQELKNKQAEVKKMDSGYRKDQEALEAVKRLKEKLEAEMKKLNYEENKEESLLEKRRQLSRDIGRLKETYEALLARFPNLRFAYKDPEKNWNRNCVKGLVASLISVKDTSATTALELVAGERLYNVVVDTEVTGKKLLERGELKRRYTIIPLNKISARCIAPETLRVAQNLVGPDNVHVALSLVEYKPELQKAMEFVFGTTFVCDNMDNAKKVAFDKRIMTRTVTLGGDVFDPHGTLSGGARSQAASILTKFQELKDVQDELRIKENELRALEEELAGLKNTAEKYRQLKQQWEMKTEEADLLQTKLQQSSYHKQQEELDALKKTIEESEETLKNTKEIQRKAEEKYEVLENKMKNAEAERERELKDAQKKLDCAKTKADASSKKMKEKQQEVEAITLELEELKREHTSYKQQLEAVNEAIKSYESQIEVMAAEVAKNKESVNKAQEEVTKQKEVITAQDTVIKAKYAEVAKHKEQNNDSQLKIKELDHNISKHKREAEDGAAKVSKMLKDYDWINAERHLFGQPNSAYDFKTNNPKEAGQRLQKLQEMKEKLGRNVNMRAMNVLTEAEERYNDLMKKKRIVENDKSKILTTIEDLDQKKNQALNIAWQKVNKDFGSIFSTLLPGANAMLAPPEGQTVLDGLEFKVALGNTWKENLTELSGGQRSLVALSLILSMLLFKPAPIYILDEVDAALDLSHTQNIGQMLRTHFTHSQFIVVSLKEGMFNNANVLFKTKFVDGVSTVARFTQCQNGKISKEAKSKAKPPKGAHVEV

By Kd is commonly meant the equilibrium constant for the complex coming apart. Turning to `Cc1cc(Nc2ncc(Cl)c(Nc3ccccc3S(=O)(=O)C(C)C)n2)c(OC(C)C)cc1C1CCNCC1` [CERITINIB], the Kd in test [1], in test [2], in test [3], in test [4], in test [5] and in test [6] was > 30 µM (inactive) each time. Further, the Kd in test [7] was > 30 µM (inactive).
Regarding `COc1c(OCCCN2CCOCC2)ccc2c1N=C(NC(=O)c1cnc(N)nc1)N1CCN=C21` [COPANLISIB], the Kd in test [1], in test [2], in test [3], in test [4], in test [5] and in test [6] was > 30 µM (inactive) throughout. Moreover, the Kd in test [7] was > 30 µM (inactive).
Take `COCC(=O)NC/C=C/c1ccc2ncnc(Nc3ccc(Oc4ccc(C)nc4)c(C)c3)c2c1` [CP-724714]: the Kd in test [1], in test [2], in test [3], in test [4], in test [5] and in test [6] was > 30 µM (inactive) throughout. Moreover, in test [7], the Kd was > 30 µM (inactive).
In the case of `C#Cc1cccc(Nc2ncnc3cc(OC)c(OCCCCCCC(=O)NO)cc23)c1` [CUDC-101], the Kd in test [1], in test [2], in test [3], in test [4], in test [5] and in test [6] was > 30 µM (inactive) throughout. For the same molecule, the Kd in test [7] was > 30 µM (inactive).
On to `CCS(=O)(=O)N1CCN(c2ccc(Nc3ncc(C(N)=O)c(NC4CC4)n3)cc2)CC1` [Cerdulatinib Hydrochloride], for which the Kd was > 30 µM (inactive) in test [1]; > 30 µM (inactive) in test [2]; 0.032 µM (active) in test [3]; > 30 µM (inactive) in test [4]; > 30 µM (inactive) in test [5]; > 30 µM (inactive) in test [6]. In addition, the Kd in test [7] was > 30 µM (inactive).
Take `Cc1cccc(-c2nn3c(c2-c2ccnc4ccc(C(N)=O)cc24)CCC3)n1` [GALUNISERTIB]: the Kd in test [1], in test [2], in test [3], in test [4], in test [5] and in test [6] was > 30 µM (inactive) throughout. Moreover, the Kd in test [7] was > 30 µM (inactive).
In the case of `COc1ccc(S(=O)(=O)N(C(C)=O)c2ccccc2/C=C/c2cc[n+]([O-])cc2)cc1` [HMN-214], the Kd in test [1], in test [2], in test [3], in test [4], in test [5] and in test [6] was > 30 µM (inactive) in each case. The Kd in test [7] was > 30 µM (inactive).
With `O=C(Nc1cc(C(F)(F)F)cc(C(F)(F)F)c1)c1cc(Cl)ccc1O` [IMD-0354], the Kd in test [1], in test [2], in test [3], in test [4], in test [5] and in test [6] was > 30 µM (inactive) in each case. Besides, the Kd in test [7] was > 30 µM (inactive).
On to `CNC(=O)c1cccc2cc(Oc3ccnc4cc(OCC5(N)CC5)c(OC)cc34)ccc12` [LUCITANIB], for which the Kd in test [1], in test [2], in test [3], in test [4], in test [5] and in test [6] was > 30 µM (inactive) in each case. For the same molecule, the Kd in test [7] was > 30 µM (inactive).
Take `CNC(=O)c1nn(C)c2c1C(C)(C)Cc1cnc(Nc3ccc(N4CCN(C)CC4)cc3)nc1-2` [MILCICLIB]: the Kd is > 30 µM (inactive) in test [1]; > 30 µM (inactive) in test [2]; > 30 µM (inactive) in test [3]; > 30 µM (inactive) in test [4]; > 30 µM (inactive) in test [5]; 0.212 µM (active) in test [6]. Further, in test [7], the Kd was 0.477 µM (active).
Take `NC1(c2ccc(-c3nc4ccn5c(=O)[nH]nc5c4cc3-c3ccccc3)cc2)CCC1` [MK-2206]: the Kd in test [1], in test [2], in test [3], in test [4], in test [5] and in test [6] was > 30 µM (inactive) in each case. For the same molecule, the Kd in test [7] is > 30 µM (inactive).
With `CN(C[C@@H]1COCCO1)S(=O)(=O)Nc1ccc2ccc3ncc(-c4cnn(C)c4)cc3c(=O)c2c1` [MK-2461], the Kd in test [1], in test [2], in test [3], in test [4], in test [5] and in test [6] was > 30 µM (inactive) throughout. In addition, in test [7], the Kd is > 30 µM (inactive).
Turning to `Cn1cc(-c2cnc3ccc4ccc(CS(=O)(=O)NCc5ccccn5)cc4c(=O)c3c2)cn1` [MK-8033], the Kd in test [1], in test [2], in test [3], in test [4], in test [5] and in test [6] was > 30 µM (inactive) each time. Moreover, the Kd in test [7] was > 30 µM (inactive).
Turning to `FC(F)(F)c1ccc(/C=C/c2nc(COc3ccc(CCCCn4ccnn4)cc3)co2)cc1` [MUBRITINIB], the Kd in test [1], in test [2], in test [3], in test [4], in test [5] and in test [6] was > 30 µM (inactive) in each case. Further, the Kd in test [7] is > 30 µM (inactive).
